Assay results published in publication PMC11274883, “Anticancer Effect of Pt^[sequence], Pt^II5MESS, Pt^II56MESS and Their Platinum(IV)-Dihydroxy Derivatives against Triple-Negative Breast Cancer and Cisplatin-Resistant Colorectal Cancer” (Cancers, 2024).

How the values were obtained:
Type in all cases: cell-based
MDA−MB−231 3D networks = experiment: 3D bioprinted culture cytotoxicity (WST-1); conditions: 72 h, mean ± SEM
Source text: (§1) To evaluate the cytotoxic effect of platinum(II) and (IV) complexes in 3D cell culture, MDA−MB−231 or HT29 cells were used to bioprint networks or spheroids with the non-contact drop-on-demand 3D RASTRUM bioprinter (Inventia Life Science, Alexandria, NSW, Australia). The 3D cultures use two constituents: bioink and activator. Cell pellets (2 × 10^6 cells) were resuspended in an activator reagent which forms an instant gel after its addition to the bioink by the bioprinter. The 3D large plug cell model with polyethylene glycol bioinks formulated to mimic the properties of in vivo tissue were chosen as follows. Matrix Px02.31 (activator F177 and bioink F242 with RGD: Fibronectin) was used for MDA−MB−231 3D embedded networks, Px02.00 (activator F177 and bioink F119 without RGD additives, Table S1) was used for MDA−MB−231 spheroids and matrix #Px02.09 (activator F177 and bioink F236 with adhesion peptides including, RGD: Fibronectin, and GFOGER: collagen type I to recapitulate rich in vivo tissue extracellular environments) was used for HT29 spheroids (Inventia Life Science) (Table S1). Each cell line was printed at 10,000 cells/well and loaded with the bioink fluids into the selected printer cartridge. After the automated priming of all fluids into the printer nozzles, each cell line was individually printed on tissue culture plates (Nunc^TM MicroWell^TM 96-Well, Nunclon Delta-Treated, Flat-Bottom Microplate, ThermoFisher #167008), with RASTRUM creating the 3D Large Plug across the 96-well plate. Following completion of the print run, 200 μL DMEM culture medium was added to each well using multichannel pipettes. The plate was then incubated for 7 days (humidified incubator with 5% CO2 at 37 °C) for compact and homogenous spheroid formation before the cytotoxicity assay. When the spheroids developed, post-7-day incubation, media was removed and replaced with 100 µL DMEM. […] Cytotoxicity was then assessed using the WST-1 assay as previously described in Section 2.3.

HT29 spheroids = experiment: 3D bioprinted spheroid cytotoxicity (WST-1); conditions: 72 h, mean ± SEM
Source text: as §1

MDA−MB−231 spheroids = experiment: 3D bioprinted spheroid cytotoxicity (WST-1); conditions: 72 h, mean ± SEM
Source text: as §1

HT29 = experiment: WST-1 cytotoxicity, 72 h; conditions: for potency relative to cisplatin / IC50: HT29, 72 h; for IC50: mean ± SEM; for Selective cytotoxicity index (SCI): IC50 MCF10A/IC50 HT29
Protocol: (§2) Cells were seeded in 96-well flat-bottom culture plates at a concentration of 1000 cells per well. […] After 72 h, the medium was removed and replaced with new medium. The cell viability reagent WST-1 (10 µL, Roche Diagnostics, Indianapolis, IN, USA) was added to each well. After an hour, the absorbance was measured at 450 nm using a versatile microplate reader (Bio-strategy, Campbellfield, VIC, Australia). Three separate experiments were performed, each with n = 3 replicates. GraphPad prism 10 was used to calculate apparent IC50 values using the nonlinear regression model Y = Bottom + (Top-Bottom)/(1 + 10^(X-LogIC50)) where Top and bottom are plateaus in the y-axis (% survival).

MCF−7 = experiment: WST-1 cytotoxicity, 72 h; conditions: for Selective cytotoxicity index (SCI): IC50 MCF10A/IC50 MCF−7; for potency relative to cisplatin / IC50: MCF−7, 72 h; for IC50: mean ± SEM
Protocol: as §2

A2780 = experiment: WST-1 cytotoxicity, 72 h; conditions: for potency relative to cisplatin / IC50: A2780, 72 h; for IC50: mean ± SEM; for Selective cytotoxicity index (SCI): IC50 MCF10A/IC50 A2780
Protocol: as §2

MDA−MB−231 = experiment: WST-1 cytotoxicity, 72 h; conditions: for Selective cytotoxicity index (SCI): IC50 MCF10A/IC50 MDA−MB−231; for potency relative to cisplatin / IC50: MDA−MB−231, 72 h; for IC50: mean ± SEM
Protocol: as §2

ADDP = experiment: WST-1 cytotoxicity, 72 h; conditions: for potency relative to cisplatin / IC50: ADDP, 72 h; for IC50: mean ± SEM; for Selective cytotoxicity index (SCI): IC50 MCF10A/IC50 ADDP
Protocol: as §2

HT29 cells = experiment: TMRE mitochondrial membrane potential assay; conditions: complexes at IC50, FCCP 20 µM
Protocol: (§3) Cells were then treated with an IC50 drug concentration for each complex. At 24, 48 or 72 h, DMEM was removed, and cells were washed with PBS. Then, cells were incubated with 1 µM tetramethylrhodamine, ethyl ester (TMRE) stain for 30 min. TMRE was then removed, and cells were washed twice with PBS (0.2% BSA), after which phenol red-free media was added. […] The cells were then stained with TMRE, as described above, and the resulting solution was scanned for fluorescence. Three independent experiments in triplicates were implemented.

MDA−MB−231 cells = experiment: TMRE mitochondrial membrane potential assay; conditions: complexes at IC50, FCCP 20 µM
Protocol: as §3

| SMILES | IC50 (MDA−MB−231 3D networks) [µM] | IC50 (HT29 spheroids) [µM] | IC50 (MDA−MB−231 spheroids) [µM] | potency relative to cisplatin (HT29) [fold] | IC50 (HT29) [µM] | Selective cytotoxicity index (SCI) (HT29) | Selective cytotoxicity index (SCI) (MCF−7) | potency relative to cisplatin (MCF−7) [fold] | IC50 (MCF−7) [µM] | potency relative to cisplatin (A2780) [fold] | IC50 (A2780) [µM] | Selective cytotoxicity index (SCI) (A2780) | IC50 (MDA−MB−231) [µM] | IC50 (ADDP) [µM] | MtMp (mitochondrial membrane potential) (HT29 cells; HT29, 24 h) [RFU] | MtMp (mitochondrial membrane potential) (HT29 cells; HT29, 48 h) [RFU] | MtMp (mitochondrial membrane potential) (HT29 cells; HT29, 72 h) [RFU] | MtMp (mitochondrial membrane potential) (MDA−MB−231 cells; MDA−MB−231, 24 h) [RFU] | MtMp (mitochondrial membrane potential) (MDA−MB−231 cells; MDA−MB−231, 48 h) [RFU] | MtMp (mitochondrial membrane potential) (MDA−MB−231 cells; MDA−MB−231, 72 h) [RFU] | also measured |
| --- | --- | --- | --- | --- | --- | --- | --- | --- | --- | --- | --- | --- | --- | --- | --- | --- | --- | --- | --- | --- | --- |
| Cc1cc2cccnc2c2ncccc12.N[C@H]1CCCC[C@@H]1N.O=[N+]([O-])[O-].O=[N+]([O-])[O-].[OH][Pt+2][OH] [Pt^IV5MESS(OH)2, [Pt(5-methyl-1,10-phenanthroline)(1S,2S-diaminocyclohexane)(dihydroxy)](NO3)2] | 3.82 ± 1.42 | 8.46 ± 1.23 | 7.99 ± 1.3 | 21 | 3.64 ± 1.45 | 3.36 | 5.66 | 15 | 2.16 ± 1.53 | 10 | 2.14 ± 1.38 | 5.71 | 2.79 ± 1.39 | 7.71 ± 1.31 | 304.45 | 224.23 | 198.24 | 250.80 | 201.07 | 155.85 | Selective cytotoxicity index (SCI) (MDA−MB−231): 4.38; potency relative to cisplatin (MDA−MB−231): 5 fold; potency relative to cisplatin (ADDP): 15 fold; Selective cytotoxicity index (SCI) (ADDP): 1.58 |
| Cc1cc2cccnc2c2ncccc12.N[C@H]1CCCC[C@@H]1N.O=[N+]([O-])[O-].O=[N+]([O-])[O-].[Pt+2] [Pt^II5MESS, [Pt(5-methyl-1,10-phenanthroline)(1S,2S-diaminocyclohexane)](NO3)2] | 2.04 ± 1.31 | 2.91 ± 1.39 | 4.08 ± 1.37 | 149 | 0.55 ± 1.42 | 2.15 | 1.37 | 38 | 0.86 ± 1.67 | 33 | 0.65 ± 1.71 | 1.82 | 0.52 | 1.32 ± 1.33 | 253.81 | 211.88 | 143.93 | 230.62 | 189.85 | 150.71 | Selective cytotoxicity index (SCI) (MDA−MB−231): 2.27; potency relative to cisplatin (MDA−MB−231): 25 fold; potency relative to cisplatin (ADDP): 85 fold; Selective cytotoxicity index (SCI) (ADDP): 0.89 |
| N[C@H]1CCCC[C@@H]1N.O=[N+]([O-])[O-].O=[N+]([O-])[O-].[Pt+2].c1cnc2c(c1)ccc1cccnc12 [[Pt(1,10-phenanthroline)(1S,2S-diaminocyclohexane)](NO3)2] | 2.84 ± 1.56 | 3.93 ± 1.46 | 5.44 ± 1.35 | 102 | 0.76 ± 1.47 | 4.59 | 1.91 | 18 | 1.83 ± 2.12 | 19 | 1.11 ± 1.88 | 3.14 | 1.01 ± 1.36 | 2.55 ± 1.48 | 321.85 | 256.63 | 236.73 | 258.17 | 218.19 | 169.95 | Selective cytotoxicity index (SCI) (MDA−MB−231): 3.45; potency relative to cisplatin (MDA−MB−231): 13 fold; potency relative to cisplatin (ADDP): 44 fold; Selective cytotoxicity index (SCI) (ADDP): 1.37 |
| Cc1c(C)c2cccnc2c2ncccc12.N[C@H]1CCCC[C@@H]1N.O=[N+]([O-])[O-].O=[N+]([O-])[O-].[OH][Pt+2][OH] [Pt^IV56MESS(OH)2, [Pt(5,6-dimethyl-1,10-phenanthroline)(1S,2S-diaminocyclohexane)(dihydroxy)](NO3)2] | 1.4 ± 1.34 | 3.16 ± 1.32 | 4.59 ± 1.35 | 62 | 1.25 ± 1.38 | 3.93 | 3.61 | 24 | 1.36 ± 1.47 | 13 | 1.69 ± 1.36 | 2.90 | 0.71 ± 1.22 | 4.17 ± 1.55 | 258.69 | 172.39 | 124.84 | 190.39 | 156.37 | 92.94 | Selective cytotoxicity index (SCI) (MDA−MB−231): 6.92; potency relative to cisplatin (MDA−MB−231): 18 fold; potency relative to cisplatin (ADDP): 27 fold; Selective cytotoxicity index (SCI) (ADDP): 1.18 |
| N[C@H]1CCCC[C@@H]1N.O=[N+]([O-])[O-].O=[N+]([O-])[O-].[OH-].[OH-].[Pt+4].c1cnc2c(c1)ccc1cccnc12 [[Pt(1,10-phenanthroline)(1S,2S-diaminocyclohexane)(dihydroxy)](NO3)2] | 6.18 ± 1.62 | 11.4 ± 1.31 | 13.5 ± 1.25 | 17 | 4.48 ± 1.77 | 4.57 | 2.18 | 3 | 9.39 ± 1.26 | 3 | 6.49 ± 1.23 | 3.15 | 3.34 ± 1.37 | 13.6 ± 1.57 | 312.19 | 261.95 | 215.58 | 297.56 | 257.95 | 179.38 | Selective cytotoxicity index (SCI) (MDA−MB−231): 6.13; potency relative to cisplatin (MDA−MB−231): 4 fold; potency relative to cisplatin (ADDP): 8 fold; Selective cytotoxicity index (SCI) (ADDP): 1.49 |
| N.N.[Cl][Pt][Cl] [Cisplatin, cisplatin] | 16 ± 1.49 | 445 ± 5.09 | 48.5 ± 1.62 | – | 77.8 ± 1.97 | – | – | – | 33 ± 1.35 | – | 21.5 ± 1.55 | – | 13.1 ± 1.36 | 112 ± 2.02 | 270.02 | 237.68 | 188.59 | 208.24 | 177.91 | 154.83 | – |
